Several values for one entry are separate records, joined by “and”; a condition that tells them apart may be missing. Equal values may be shown once.
Columns and labels:
Type in all cases: cell-based
SCD5 = molecular target: T1, SCD5 (Homo sapiens, UniProt Q86SK9); experiment: Growth inhibition of humanized yeast strain expressing SCD5 as sole desaturase; settings: humanized yeast strain expressing SCD5
T1 construct: host or cells: S. cerevisiae ole1Δ strain (W303 pdr1Δ pdr3Δ background), plasmid pRS316 with TDH3 promoter and CYC1 terminator
T1 sequence (Q86SK9 1-330): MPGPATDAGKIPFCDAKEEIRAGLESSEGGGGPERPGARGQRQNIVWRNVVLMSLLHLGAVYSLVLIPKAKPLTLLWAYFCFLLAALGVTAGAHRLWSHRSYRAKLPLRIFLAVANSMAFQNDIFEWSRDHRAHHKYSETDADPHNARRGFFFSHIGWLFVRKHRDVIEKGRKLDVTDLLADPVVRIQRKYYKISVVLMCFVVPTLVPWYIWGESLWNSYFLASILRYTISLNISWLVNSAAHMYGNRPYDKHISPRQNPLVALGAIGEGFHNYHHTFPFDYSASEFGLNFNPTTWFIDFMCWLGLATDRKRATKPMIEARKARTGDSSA
How it was run: (§1)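 Measured by optical density at 600 nm, growth of desaturase-dependent yeast (OLE1 deleted; human SCD1, human SCD5 or yeast Ole1 supplied from plasmid) was scored after 24 h (Ole1) or 40 h (SCD1, SCD5) at 30° C. in galactose media lacking uracil with DMSO-delivered compound.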

SCD1 = molecular target: T2, SCD1 (Homo sapiens, UniProt O00767); experiment: Growth inhibition of humanized yeast strain expressing SCD1 as sole desaturase; settings: humanized yeast strain expressing SCD1
T2 construct: host or cells: S. cerevisiae ole1Δ strain (W303 pdr1Δ pdr3Δ background), plasmid pRS316 with TDH3 promoter and CYC1 terminator
T2 sequence (O00767 1-359): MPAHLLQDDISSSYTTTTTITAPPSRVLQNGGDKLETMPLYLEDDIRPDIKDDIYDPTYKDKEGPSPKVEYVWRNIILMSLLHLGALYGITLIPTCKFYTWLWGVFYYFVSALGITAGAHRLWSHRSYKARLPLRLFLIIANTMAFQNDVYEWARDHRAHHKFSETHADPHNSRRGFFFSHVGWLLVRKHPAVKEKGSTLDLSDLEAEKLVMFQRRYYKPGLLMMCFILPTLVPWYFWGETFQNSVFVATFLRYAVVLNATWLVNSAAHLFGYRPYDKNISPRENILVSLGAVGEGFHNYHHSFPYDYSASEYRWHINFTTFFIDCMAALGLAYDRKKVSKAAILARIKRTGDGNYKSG
How it was run: as §1

Ole1 = molecular target: T3, Ole1 (Saccharomyces cerevisiae, UniProt P21147); experiment: Growth inhibition of yeast strain expressing Ole1 as sole desaturase; settings: yeast strain expressing Ole1 as sole desaturase
T3 construct: expressed in transfected cells; host or cells: S. cerevisiae ole1Δ strain (W303 pdr1Δ pdr3Δ background), plasmid pRS316 with TDH3 promoter and CYC1 terminator
T3 sequence (P21147 1-510): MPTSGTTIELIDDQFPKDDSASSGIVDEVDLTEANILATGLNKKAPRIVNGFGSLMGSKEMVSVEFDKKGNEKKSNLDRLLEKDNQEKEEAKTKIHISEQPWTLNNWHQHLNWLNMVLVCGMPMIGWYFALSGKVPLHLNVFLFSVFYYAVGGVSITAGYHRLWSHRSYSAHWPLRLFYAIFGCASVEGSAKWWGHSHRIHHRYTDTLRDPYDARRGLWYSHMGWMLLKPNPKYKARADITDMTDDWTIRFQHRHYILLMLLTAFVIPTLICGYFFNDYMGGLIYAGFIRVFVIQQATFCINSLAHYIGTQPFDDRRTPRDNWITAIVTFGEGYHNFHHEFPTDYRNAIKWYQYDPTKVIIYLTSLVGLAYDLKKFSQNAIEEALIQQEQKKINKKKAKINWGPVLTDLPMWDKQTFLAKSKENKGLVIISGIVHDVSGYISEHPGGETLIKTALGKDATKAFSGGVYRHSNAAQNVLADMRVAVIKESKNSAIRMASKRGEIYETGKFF
How it was run: as §1

Compound	IC50 (SCD5) [µM]	SCD5 % Max Inhibition (SCD5)	SCD1 % Max Inhibition (SCD1)	IC50 (Ole1) [µM]	OLE1 % Max Inhibition (Ole1)	IC50 (SCD1) [µM]
CCN(Cc1nc(-c2ccc3c(c2)N(CC)C(=O)CO3)no1)C(=O)Cc1cccc2ccccc12 [Compound 494]	> 45	73.76%	79.67%	> 45	92.28%	
CCN1C(=O)COc2ccc(-c3nc(C(C)c4ccccc4)no3)cc21 (stereo not drawn) [Compound 160]	24.3	28.51%	63.44%	36.2	71.55%	40.7
CCc1c2ccc(-c3noc(C4CCN(C(=O)CNC(=O)c5ccccc5)CC4)n3)cc2nn1C [Compound 321]	> 45	74.1%	71.6%	> 45	14.0%	
CC(C)(CO)n1cc2ccc(-c3noc(C4CCN(C(=O)C5CC(=O)N(c6ccccc6)C5)CC4)n3)cc2n1 (stereo not drawn) [Compound 201]	32.9	65.14%	79.67%	> 45	85.29%	> 45
CCOc1ccc(-c2noc(C3CCN(C(=O)[C@H]4CCN(C(=O)c5ccccc5)C4)CC3)n2)cc1OC [Compound 234]	> 45	76.83%	68.91%	> 45	84.80%	> 45
Cc1nn(C)c2cc(-c3noc(C4CCN(C(=O)CN5Cc6ccccc6C5=O)CC4)n3)cnc12 [Compound 200]	41.1	64.72%	79.67%	> 45	2.69%	> 45
CC(C)(CO)n1ncc2ccc(-c3noc(C4CCN(C(=O)CNC(=O)c5ccccc5)CC4)n3)cc21 [Compound 189]	> 45	68.58%	88.10%	> 45	98.14%	> 45
Cc1nn(C)c2cc(-c3noc(C4CCN(C(=O)CNC(=O)c5ccc(C#N)cc5)CC4)n3)ccc12 [Compound 267]	> 45	11.33%	58.58%	> 45	4.64%	37.8
Cc1nn(C)c2cc(-c3noc(C4CCN(C(=O)[C@H]5CC(=O)N(c6ccccc6)C5)CC4(F)F)n3)ccc12 (stereo partly drawn) [Compound 241]	> 45	16.97%	91.61%	> 45	6.15%	> 45
O=C(CN1Cc2ccccc2C1=O)N1CCC(c2nc(-c3ccc4nonc4c3)no2)CC1 [Compound 182]	> 45	79.82%	113.27%	> 45	124.27%	> 45
COc1ccc(-c2noc(C3CCN(C(=O)[C@H](NC(=O)c4ccccc4)C4CC4)CC3)n2)cc1OC [Compound 190]	> 45	19.31%	83.53%	> 45	100.94%	> 45
Cc1nn(C)c2cc(-c3noc(C4CCN(C(=O)c5ccccc5Cl)CC4)n3)ccc12 [Compound 288]	> 45	7.52%	8.71%	> 45	7.14%	
CC(C)n1ncc2ccc(-c3noc(C4CCN(C(=O)OC(C)(C)C)CC4)n3)cc21 [Compound 265]	> 45	10.96% and 3.97%	76.74% and 54.38%	> 45	103.04% and 83.99%	≥ 45

Reference: US11873298B2, “Compounds and uses thereof” (JANSSEN PHARMACEUTICA NV, priority 2017, dated 2024)
